This experiment deals with HeLa cells, A2780 cells. Description: growth profile of cells by Real Time Analyser (xCELLigence RTCA, Roche). It is filed as cell-based, human. Conditions: HeLa and A2780 cells; same concentration of docetaxel; FIG. 2. The text has this: FIG. 2A, 2B: HeLa and A2780 measured by Real Time Analyser (Roche). These figures show the growth profile of HeLa cells (A), and A2780 cells (B) after treating with docetaxel drug molecules (D), docetaxel-loaded nanoparticles (NP) and control cells (C). The injected volume contained the same concentration of docetaxel.
The xCELLigence RTCA HT Instrument from Roche Applied Science uses gold electrodes at the bottom surface of microplate wells as sensors to which an alternating current is applied. Cells that are grown as adherent monolayers on top of such electrodes influence the alternating current at the electrodes by changing the electrical resistance (impedance). The degree of this change is primarily determined by the number of cells, strength of the cell-cell interactions, interactions of the cells with the microelectrodes and by the overall morphology of the cells. The RTCA Software calculates the Cell Index (CI) as the relative change in measured impedance to represent cell status. The normalized cell index (NCI—plotted on y axis) is the relative cell impedance presented in the percentage of the value at the base-time. […] NCI increases by rise of cell-number or cell-size. For example NCI value in a culture treated with a proliferation inhibitory drug first can increase (because the cell-size grows) and after decreases (because the cell-number reduces)

Regarding `CC(=O)O[C@@]12CO[C@@H]1C[C@H](O)[C@@]1(C)C(=O)[C@H](O)C3=C(C)[C@@H](OC(=O)[C@H](O)[C@@H](NC(=O)OC(C)(C)C)c4ccccc4)C[C@@](O)([C@@H](OC(=O)c4ccccc4)[C@H]21)C3(C)C` [docetaxel, 1,7β,10β-trihydroxy-9-oxo-5β,20-epoxytax-11-ene-2α,4,13α-triyl 4-acetate 2-benzoate 13-{(2R,3S)-3-[(tert-butoxycarbonyl)amino]-2-hydroxy-3-phenylpropanoate}], the “effect on growth profile (normalized cell index) of tumor cell lines” value is reported as “similar”.
